Data taken from patent US20230242552A1, “Nitrogen-Containing Heterocyclic Compound, Preparation Method Therefor and Use Thereof” (280 Bio, Inc, priority 2022, published 2023).

Tests used:
Settings in all cases: CellTiter Glo, 120 hours incubation
[1] = tested on: NCI-H358 (KRAS G12C mutation); assay: Proliferation inhibition measured by CTG, NCI-H358; format: cell-based, human
Description: (§1) NCI-H358 is a human non-small cell lung cancer cell line with KRAS G12C mutation; AGS is a gastric cancer cell line with KRAS G12D mutation; SW480 is a colon cancer cell lines with KRAS G12V mutation; A375 is a wild type malignant melanoma cell line. The proliferation inhibitory effect of the compounds on various mutations was evaluated by determining the proliferation inhibitory activity of the compounds on these cell lines.
(§2) The assay was conducted on either 384-well plates or 96-well plates. The procedures are as follows:
(§3) The cell suspensions were added to 384- or 96-well plates (384-well plate: 40 μL; 96-well plate: 100 μL) except for peripheral wells. The plates were incubated in a carbon dioxide incubator overnight. Prepared compounds (10 concentration gradients by serial 3-fold dilution) were added to the wells. The cell plates were incubated in a carbon dioxide incubator for 120 hours. CellTiter Glo reagent (384 well plate: 25 μL; 96 well plate: 100 μL) was added to the 384- or 96-well plates. The plates were shaken for 10 minutes away from light, and incubated for 10 minutes. The plates were read by EnVision system. Inhibition curves were plotted using XLFit and IC50 values were calculated. “IC50>10 μM” is denoted by “*”, “10 μM≥IC50>1 μM” is denoted by […] is denoted by “***”, “---” means no data.

[2] = tested on: SW480 (colon cancer cell lines with KRAS G12V mutation); assay: Proliferation inhibition measured by CTG, SW480; format: cell-based
Description: as §1, §2, §3

[3] = tested on: A375 (wild type malignant melanoma cell line); assay: Proliferation inhibition measured by CTG, A375; format: cell-based
Description: as §1, §2, §3

[4] = tested on: AGS (gastric cancer cell line with KRAS G12D mutation); assay: Proliferation inhibition measured by CTG, AGS; format: cell-based
Description: as §1, §2, §3

| SMILES | IC50 ([1]; Homo sapiens, NCI-H358, 120 h) | IC50 ([3]; Homo sapiens, A-375, 120 h) | IC50 [4] | IC50 [1] | IC50 [3] | IC50 ([4]; 120 h) | also measured |
| --- | --- | --- | --- | --- | --- | --- | --- |
| CC1Cc2cncc(F)c2CN1c1nc(OC[C@@H]2CCCN2C)nc2c1CCN(c1cccc3cccc(Cl)c13)C2 (single isomer, unassigned) [Compound 4-1] | 1000 to 10000 nM | 1000 to 10000 nM | ≤ 1000 nM |  |  |  | IC50 [2]: 1000 to 10000 nM |
| CC1Cc2cncc(F)c2CN1c1nc(OC[C@@H]2CCCN2C)nc2c1CCN(c1cccc3cccc(Cl)c13)C2 (single isomer, unassigned) [Compound 4-2] |  |  | ≤ 1000 nM | ≤ 1000 nM | ≤ 1000 nM |  | IC50 [2]: ≤ 1000 nM |
| CC1Cc2cncc(F)c2CN1c1nc(OC[C@@H]2CCCN2C)nc2c1CO[C@H](c1cccc3cccc(Cl)c13)C2 (single isomer, unassigned) [Compound 11-1] |  |  | 1000 to 10000 nM | 1000 to 10000 nM | 1000 to 10000 nM |  |  |
| CC1Cc2cncc(F)c2CN1c1nc(OC[C@@H]2CCCN2C)nc2c1CO[C@H](c1cccc3cccc(Cl)c13)C2 (single isomer, unassigned) [Compound 11-2] |  |  | ≤ 1000 nM | 1000 to 10000 nM | 1000 to 10000 nM |  |  |
| CN1CCC[C@H]1COc1nc2c(c(N3CCc4cnccc4C3)n1)CCN(c1cccc3cccc(Cl)c13)C2 [Compound 1] | ≤ 1000 nM | ≤ 1000 nM |  |  |  |  |  |
| COc1cc2c(cn1)CCN(c1nc(OC[C@@H]3CCCN3C)nc3c1CCN(c1cccc4cccc(Cl)c14)C3)C2 [Compound 2] | 1000 to 10000 nM | 1000 to 10000 nM |  |  |  | 1000 to 10000 nM |  |
| CC1Cc2cnccc2CN1c1nc(OC[C@@H]2CCCN2C)nc2c1CCN(c1cccc3cccc(Cl)c13)C2 (some centres unmarked) [Compound 3-1] | 1000 to 10000 nM | 1000 to 10000 nM |  |  |  | 1000 to 10000 nM | IC50 ([2]; Homo sapiens, SW480, 120 h): 1000 to 10000 nM |
| CC1Cc2cnccc2CN1c1nc(OC[C@@H]2CCCN2C)nc2c1CCN(c1cccc3cccc(Cl)c13)C2 (some centres unmarked) [Compound 3-2] |  |  | ≤ 1000 nM | ≤ 1000 nM | ≤ 1000 nM |  | IC50 [2]: ≤ 1000 nM |
| CC1Cc2cnccc2CN1c1nc(OC[C@@H]2CCCN2C)nc2c1CCN(c1cccc3cccc(Cl)c13)C2 (some centres unmarked) [Compound 3] |  |  | ≤ 1000 nM | ≤ 1000 nM | ≤ 1000 nM |  | IC50 [2]: ≤ 1000 nM |
| CC1Cc2cncc(F)c2CN1c1nc(OC[C@@H]2CCCN2C)nc2c1CCN(c1cccc3cccc(Cl)c13)C2 (some centres unmarked) [Compound 4] |  |  |  |  |  | ≤ 1000 nM | IC50 ([2]; Homo sapiens, SW480, 120 h): ≤ 1000 nM |
| CC1Cc2cncc(F)c2CN1c1nc(OC[C@@H]2CCCN2C)nc2c1CCN(c1cc(O)cc3cccc(Cl)c13)C2 (some centres unmarked) [Compound 5-1] | ≤ 1000 nM | ≤ 1000 nM |  |  |  |  |  |
| CC1Cc2cncc(F)c2CN1c1nc(OC[C@@H]2CCCN2C)nc2c1CCN(c1cc(O)cc3cccc(Cl)c13)C2 (some centres unmarked) [Compound 5-2] |  |  |  | ≤ 1000 nM | ≤ 1000 nM |  |  |
| CC1Cc2cncc(F)c2CN1c1nc(OC[C@@H]2CCCN2C)nc2c1CCN(c1cc(O)cc3cccc(Cl)c13)C2 (some centres unmarked) [Compound 5] |  |  |  |  |  | ≤ 1000 nM | IC50 ([2]; Homo sapiens, SW480, 120 h): ≤ 1000 nM |
| CC1Cc2cnccc2CN1c1nc(OC[C@@H]2CCCN2C)nc2c1CCN(c1cc(O)cc3cccc(Cl)c13)C2 (some centres unmarked) [Compound 6] |  |  |  |  |  | ≤ 1000 nM | IC50 ([2]; Homo sapiens, SW480, 120 h): ≤ 1000 nM |
| C#Cc1c(F)ccc2cc(O)cc(N3CCc4c(nc(OC[C@@H]5CCCN5C)nc4N4Cc5c(F)cncc5CC4C)C3)c12 (some centres unmarked) [Compound 7] | 1000 to 10000 nM | 1000 to 10000 nM |  |  |  | ≤ 1000 nM | IC50 ([2]; Homo sapiens, SW480, 120 h): 1000 to 10000 nM |
| CC1Cc2cncc(F)c2CN1c1nc(OC[C@@H]2CCCN2C)nc2c1CO[C@H](c1cccc3cccc(Cl)c13)C2 (some centres unmarked) [Compound 11] | 1000 to 10000 nM | 1000 to 10000 nM |  |  |  | ≤ 1000 nM |  |
| C[C@@H]1Cc2cncc(F)c2CN1c1nc(OC[C@@H]2CCCN2C)nc2c1CCN(c1cncc3cccc(Cl)c13)C2 [Compound 34] |  | ≤ 1000 nM |  |  |  | ≤ 1000 nM |  |
| C[C@@H]1Cc2cncc(F)c2CN1c1nc(OC[C@@H]2CCCN2C)nc2c1CCN(c1cccc3cccc(F)c13)C2 [Compound 35] |  | ≤ 1000 nM |  |  |  | ≤ 1000 nM |  |
| C[C@@H]1Cc2cncc(F)c2CN1c1nc(OC[C@@H]2CCCCN2C)nc2c(F)c(-c3cccc4cccc(F)c34)ncc12 [Compound 36] |  |  |  |  |  | ≤ 1000 nM |  |
